This assay deals with hCoV-229E. Nature of the assay: microbe, parasite or virus in culture. The settings on record: Human coronavirus 229E, MRC5, read-out: cell viability.

SMILES strings stand for the structures.

Regarding `CCC(CC)COC(=O)[C@H](C)N[P@](=O)(OC[C@H]1O[C@@](C#N)(c2ccc3c(N)ncnn23)[C@H](O)[C@@H]1O)Oc1ccccc1` [remdesivir], the viability at 5 µM is 92%.

Broadly, the viability is a per cent measure of how many cells are alive, often set against a control.

The values above are taken from US20210246019A1, “PEPTIDE/LIPID-ASSOCIATED NUCLEIC ACIDS (PLANA) FOR NUCLEIC ACID DELIVERY” (priority 2020, published 2021).
